In patent publication US20220370448A1, “PHARMACEUTICAL COMPOSITION COMPRISING THIRD GENERATION SMALL MOLECULE EGFR INHIBITOR AND PREPARATION METHOD THEREOF” (Jiangsu Hansoh Pharmaceutical Group Co., LTD., priority 2018, published 2022):

Columns and labels:
[1] = Solubility; type: physicochemical; settings: dependence on pH
From the text: The pharmaceutical composition prepared according to the present invention has a good and uniform dissolution in different dissolution media.

[2] = molecular target: wild-type EGFR (Homo sapiens, UniProt P00533); settings: background statement, WO2016054987; cited from earlier work
[3] = molecular target: EGFR T790M mutant (Homo sapiens, UniProt P00533, T790M); settings: background statement, WO2016054987; cited from earlier work
[4] = Permeability; type: in vitro ADME

Chain of wild-type EGFR (P00533 25-1210): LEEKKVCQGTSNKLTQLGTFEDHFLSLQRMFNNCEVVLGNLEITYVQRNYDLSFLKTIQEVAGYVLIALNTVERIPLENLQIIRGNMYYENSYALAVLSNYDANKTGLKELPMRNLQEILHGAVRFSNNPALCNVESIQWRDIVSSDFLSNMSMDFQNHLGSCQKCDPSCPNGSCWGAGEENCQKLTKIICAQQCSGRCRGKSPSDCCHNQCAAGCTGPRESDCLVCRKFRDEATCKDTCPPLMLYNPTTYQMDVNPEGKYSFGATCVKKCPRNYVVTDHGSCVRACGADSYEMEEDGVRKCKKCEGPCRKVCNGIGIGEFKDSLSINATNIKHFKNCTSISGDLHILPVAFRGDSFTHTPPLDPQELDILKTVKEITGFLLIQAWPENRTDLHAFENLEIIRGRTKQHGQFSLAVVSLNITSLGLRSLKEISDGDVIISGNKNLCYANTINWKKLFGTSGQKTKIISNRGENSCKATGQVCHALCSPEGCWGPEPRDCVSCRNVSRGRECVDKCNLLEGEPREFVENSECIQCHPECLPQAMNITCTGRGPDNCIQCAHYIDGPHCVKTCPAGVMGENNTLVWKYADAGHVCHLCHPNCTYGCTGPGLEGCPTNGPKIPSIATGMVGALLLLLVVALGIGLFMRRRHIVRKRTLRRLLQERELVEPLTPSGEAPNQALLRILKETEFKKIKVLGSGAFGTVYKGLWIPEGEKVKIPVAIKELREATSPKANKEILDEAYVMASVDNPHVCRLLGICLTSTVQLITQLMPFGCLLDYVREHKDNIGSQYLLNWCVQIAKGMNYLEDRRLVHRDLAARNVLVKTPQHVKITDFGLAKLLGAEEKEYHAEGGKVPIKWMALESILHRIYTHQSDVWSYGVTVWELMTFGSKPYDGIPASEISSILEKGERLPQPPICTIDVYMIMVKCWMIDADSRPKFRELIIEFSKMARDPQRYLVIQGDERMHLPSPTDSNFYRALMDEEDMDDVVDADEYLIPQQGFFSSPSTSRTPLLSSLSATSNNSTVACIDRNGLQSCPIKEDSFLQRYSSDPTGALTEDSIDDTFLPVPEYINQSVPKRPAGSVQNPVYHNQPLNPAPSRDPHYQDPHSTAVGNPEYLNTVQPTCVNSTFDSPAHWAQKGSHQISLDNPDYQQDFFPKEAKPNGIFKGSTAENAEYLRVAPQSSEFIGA
Chain of EGFR T790M mutant (P00533 25-1210 T790M): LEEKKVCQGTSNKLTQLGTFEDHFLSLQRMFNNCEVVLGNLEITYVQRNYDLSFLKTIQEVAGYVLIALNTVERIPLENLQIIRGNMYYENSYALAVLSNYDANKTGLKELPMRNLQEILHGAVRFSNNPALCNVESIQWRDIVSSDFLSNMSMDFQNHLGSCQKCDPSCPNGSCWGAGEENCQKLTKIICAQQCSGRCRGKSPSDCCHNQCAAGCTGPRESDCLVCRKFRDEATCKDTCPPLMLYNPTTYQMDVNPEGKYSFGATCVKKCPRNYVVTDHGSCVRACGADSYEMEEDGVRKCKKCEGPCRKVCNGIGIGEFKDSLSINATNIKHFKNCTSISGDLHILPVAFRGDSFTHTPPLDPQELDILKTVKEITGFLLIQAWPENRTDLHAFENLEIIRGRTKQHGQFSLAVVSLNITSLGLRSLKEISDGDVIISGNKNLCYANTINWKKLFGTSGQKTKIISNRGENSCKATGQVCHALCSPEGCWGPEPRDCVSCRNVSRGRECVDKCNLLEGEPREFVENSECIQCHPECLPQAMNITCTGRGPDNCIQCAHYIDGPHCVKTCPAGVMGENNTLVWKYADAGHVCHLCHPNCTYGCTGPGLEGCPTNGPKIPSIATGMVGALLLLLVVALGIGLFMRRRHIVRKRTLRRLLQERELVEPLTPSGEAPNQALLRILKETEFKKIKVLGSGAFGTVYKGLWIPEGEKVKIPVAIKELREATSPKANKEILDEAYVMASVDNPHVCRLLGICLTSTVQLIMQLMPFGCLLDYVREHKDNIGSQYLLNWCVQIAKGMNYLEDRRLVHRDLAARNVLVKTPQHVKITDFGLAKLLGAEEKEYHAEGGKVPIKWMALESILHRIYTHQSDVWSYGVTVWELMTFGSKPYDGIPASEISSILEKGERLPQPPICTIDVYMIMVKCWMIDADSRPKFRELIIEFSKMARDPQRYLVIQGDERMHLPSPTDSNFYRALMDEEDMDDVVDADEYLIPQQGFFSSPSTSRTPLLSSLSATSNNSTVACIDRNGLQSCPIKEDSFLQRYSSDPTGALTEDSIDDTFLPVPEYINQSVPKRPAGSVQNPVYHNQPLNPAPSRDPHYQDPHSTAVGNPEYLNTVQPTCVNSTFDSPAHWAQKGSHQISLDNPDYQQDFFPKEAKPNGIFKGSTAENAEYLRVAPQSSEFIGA

solubility [1]: greatly affected by pH
permeability [4]: low permeability
Structure (SMILES): C=CC(=O)Nc1cc(Nc2nccc(-c3cn(C4CC4)c4ccccc34)n2)c(OC)cc1N(C)CCN(C)C [compound of formula I, N-(5-((4-(1-cyclopropyl-1H-indol-3-yl)pyrimidin-2-yl)amino)-2-((2-(dimethylamino)ethyl)(methyl)amino)-4-methoxyphenyl)acrylamide]
activity on wild-type EGFR [2]: no or low activity
selectivity for inhibiting the EGFR T790M mutant [3]: high selectivity
